Results: patent US20260049072A1, “HETEROCYCLIC COMPOUND FOR INDUCING DEGRADATION OF MUTANT KRAS PROTEIN” (Astellas Pharma Inc., priority 2022, published 2026)
Read-outs that look alike come from different tables or passages of the source.

Columns and labels:
PA-TU-8902 cells = assay: Non-anchorage-dependent cell growth inhibition (spheroid 3D culture), PA-TU-8902; format: cell-based, human; details: Homo sapiens, PaTu 8902, 144 h, read-out: PA-TU-8902 IC50
Description: Test Example 3: Evaluation of Non-Anchorage-Dependent Cell Growth Inhibitory Activity on Human KRAS G12V Mutant-Positive Pancreatic Cancer Line PA-TU-8902, Human KRAS G12D Mutant-Positive Pancreatic Cancer Line AsPC-1 or Human KRAS G12C Mutant-Positive Pancreatic Cancer Line MIA PaCa-2
The non-anchorage-dependent cell growth inhibitory activities of subject compounds were evaluated by spheroid 3D cell culture.
PA-TU-8902 cells, AsPC-1 cells or MIA PaCa-2 cells (RIKEN BRC, RCB2094) were seeded at 36 µL/well on a low-cell-adhesive round bottom 384-well plate (Prime Surface: from Sumitomo Bakelite) to give 5×10^2 cells per well. The PA-TU-8902 cells were under the same conditions as in Test Example 1-1, and the AsPC-1 cells were under the same conditions as in Test Example 1-2. For the MIA PaCa-2 cells, RPMI-1640 medium containing 10% fetal bovine serum was used in the presence of 5% CO2 at 37° C.
The next day, the subject compounds (6-9 points having final concentrations in the range of 3 μM to 0.3 nM) and DMSO, which was the solvent for the subject compounds, as a negative control were diluted 100-fold with a fresh medium and were each added at 4 μL per well. After culturing in the presence of 5% CO2 at 37° C. for six days, CellTiter-Glo 2.0 (from Promega) was added at 20 μL per well. After stirring with a plate mixer (from FINEPCR) at normal temperature for an hour, the luminescent signals were measured with ARVO X3 (from PerkinElmer).
With the signaling value in treatment with DMSO taken as 0% inhibition and with the signaling value in the medium alone without cells taken as 100% inhibition, the 50% inhibition values (IC50) were calculated by Sigmoid-Emax model nonlinear regression analysis.

[1] = system: phosphorylation of ERK (Thr202/Tyr204); assay: ERK phosphorylation inhibitory activity, cell ELISA, PA-TU-8902; format: cell-based; details: Homo sapiens, read-out: IC50 (ERK phosphorylation inhibition)
Description: Test Example 2: Evaluation of ERK Phosphorylation Inhibitory Activity on Human KRAS G12V Mutant-Positive Pancreatic Cancer Line PA-TU-8902
The ERK phosphorylation inhibitory activities of subject compounds were evaluated by measuring phosphorylation of the 202th threonine (Thr202) and the 204th tyrosine (Tyr204) of ERK located downstream of the KRAS signal by cell ELISA.
PA-TU-8902 cells were seeded at 36 µL/well on a 384-well plate (from Greiner bio-one) to give 5.0×10^3 cells per well. The cell culture conditions were the same conditions as in Test Example 1-1.
The next day, the subject compounds (9 points having final concentrations in the range of 3 μM to 0.3 nM), trametinib (MEK inhibitor) of a final concentration of 300 nM as a positive control and DMSO, which was the solvent for the subject compounds, as a negative control were diluted 100-fold with a fresh medium and were each added at 4 μL per well, followed by culturing for 24 hours. After culturing, a 30% glyoxal solution (40% glyoxal [from Nacalai Tesque] was diluted with PBS) was quickly added at 30 μL per well, and the plate was allowed to stand for an hour and 30 minutes at room temperature to thus immobilize the cells. Then, the plate was centrifuged (110×g, seven seconds, hereinafter centrifugation was performed under the same conditions unless otherwise specified) to remove the supernatant, and 0.1% Triton X-100-containing PBS was added at 20 μL per well. After allowing the plate to stand for 10 minutes at room temperature, the supernatant was removed by centrifugation, and the same operation was further repeated. Next, 0.5% SDS-containing PBS was added at 20 μL per well. The plate was allowed to stand at room temperature for 30 minutes and was then centrifuged to remove the supernatant. Subsequently, a blocking solution (Intercept Blocking Buffer) was added at 20 μL per well, and the plate was allowed to stand for an hour at room temperature. The supernatant was removed by centrifugation, and an ERK (Thr202/Tyr204) phosphorylation antibody (Phospho-p44/42 MAPK (Erk 1/2) (Thr202/Tyr204) (D13.14.4E) XP Rabbit mAb; from Cell Signaling Technology) diluted 2,500-fold with the blocking solution was added at 15 μL per well as a primary antibody. The plate was allowed to stand at 4° C. overnight.
The next day, the plate was centrifuged to remove the supernatant, and 0.05% Tween-20-containing PBS (from Thermo Scientific; 20×PBS Tween-20 was diluted 20-fold with ion exchange water and used) was added at 50 μL per well. The supernatant was removed by centrifugation to thus wash each well. The washing was performed three times in total. After washing, an anti-rabbit IgG antibody diluted 1,000-fold with the blocking solution was added at 15 μL per well as a secondary antibody, and the plate was allowed to stand for an hour at room temperature. The plate was centrifuged to remove the supernatant, and each well was washed three times with 0.05% Tween-20-containing PBS in the same manner as after the primary antibody reaction. Centrifugation after the third washing was performed at 171×g for 17 seconds. After removing the supernatant, the plate was dried as it was with air at room temperature for three hours or more, and the 800-nm fluorescent signals were measured with Aerius.
With the signaling value at the time of addition of DMSO taken as 0% inhibition and with the signaling value at the time of addition of 300 nM trametinib taken as 100% inhibition, the 50% inhibition values (IC50) were calculated by Sigmoid-Emax model nonlinear regression analysis.

[2] = KRAS G12V mutant-positive, 3D spheroid, six days, CellTiter-Glo 2.0
[3] = PaTu 8902, PA-TU-8902 cells, 24 hours, 100% = 300 nM trametinib

| Compound | IC50 [1, 3] | IC50 (PA-TU-8902 cells; [2]) | IC50 (PA-TU-8902 cells) | IC50 ([1]; PaTu 8902, 24 h) |
| --- | --- | --- | --- | --- |
| CO[C@@H](C)COc1cc(OC2CN(C(=O)N3CC(CN(C)C)C3)C2)c2cc(C3CC3)c(-c3c(C)c(F)cc4[nH]ncc34)c(OCc3ccc(-c4cn([C@H](C(=O)N5C[C@H](O)C[C@H]5C(=O)N[C@@H](CO)c5ccc(-n6cncn6)cc5)C(C)C)nn4)cc3)c2n1 (atropisomer, axis not shown; (M)) [Example 5, (4R)-1-[(2S)-2-(4-{4-[({(7M)-6-cyclopropyl-4-[(1-{3-[(dimethylamino)methyl]azetidine-1-carbonyl}azetidin-3-yl)oxy]-7-(6-fluoro-5-methyl-1H-indazol-4-yl)-2-[(2S)-2-methoxypropoxy]quinolin-8-yl}oxy)methyl]phenyl}-1H-1,2,3-triazol-1-yl)-3-methylbutanoyl]-4-hydroxy-N-{(1R)-2-hydroxy-1-[4-(1H-1,2,4-triazol-1-yl)phenyl]ethyl}-L-prolinamide] | 8 nM | 29 nM | – | – |
| CO[C@@H](C)COc1nc(NC2CN(C(=O)O[C@H]3C[C@@H](N(C)C)C3)C2)c2cc(C3CC3)c(-c3c(C)c(F)cc4[nH]ncc34)c(OCc3ccc(-c4cn([C@H](C(=O)N5C[C@H](O)C[C@H]5C(=O)N[C@@H](CO)c5ccc(-c6scnc6C)cc5)C(C)C)nn4)cc3)c2n1 (atropisomer, axis not shown; (M)) [Example 11, (1s,3R)-3-(dimethylamino)cyclobutyl 3-({(7M)-6-cyclopropyl-7-(6-fluoro-5-methyl-1H-indazol-4-yl)-8-{[4-(1-{(2S)-1-[(2S,4R)-4-hydroxy-2-({(1R)-2-hydroxy-1-[4-(4-methyl-1,3-thiazol-5-yl)phenyl]ethyl}carbamoyl)pyrrolidin-1-yl]-3-methyl-1-oxobutan-2-yl}-1H-1,2,3-triazol-4-yl)phenyl]methoxy}-2-[(2S)-2-methoxypropoxy]quinazolin-4-yl}amino)azetidine-1-carboxylate] | 14 nM | 45 nM | – | – |
| CO[C@@H](C)COc1nc(OC2CN(C(=O)NCCN(C)C)C2)c2cc(C3CC3)c(-c3c(C)c(F)cc4[nH]ncc34)c(OCc3ccc(C(=O)N[C@H](C(=O)N4C[C@H](O)C[C@H]4C(=O)N[C@@H](CO)c4ccc(-c5scnc5C)cc4)C(C)C)cc3)c2n1 [Example 40, N-{4-[({(7M)-6-cyclopropyl-4-[(1-{[2-(dimethylamino)ethyl]carbamoyl}azetidin-3-yl)oxy]-7-(6-fluoro-5-methyl-1H-indazol-4-yl)-2-[(2S)-2-methoxypropoxy]quinazolin-8-yl}oxy)methyl]benzoyl}-L-valyl-(4R)-4-hydroxy-N-{(1R)-2-hydroxy-1-[4-(4-methyl-1,3-thiazol-5-yl)phenyl]ethyl}-L-prolinamide] | – | – | 100 nM | 53 nM |
| CO[C@@H](C)COc1cc(OC2CN(C(=O)NCCN(C)C)C2)c2cc(C3CC3)c(-c3c(C)c(F)cc4[nH]ncc34)c(OCc3ccc(-c4cn([C@H](C(=O)N5C[C@H](O)C[C@H]5C(=O)N[C@@H](CO)c5ccc(-n6cncn6)cc5)C(C)C)nn4)cc3)c2n1 (atropisomer, axis not shown; (M)) [Example 12, (4R)-1-[(2S)-2-(4-{4-[({(7M)-6-cyclopropyl-4-[(1-{[2-(dimethylamino)ethyl]carbamoyl}azetidin-3-yl)oxy]-7-(6-fluoro-5-methyl-1H-indazol-4-yl)-2-[(2S)-2-methoxypropoxy]quinolin-8-yl}oxy)methyl]phenyl}-1H-1,2,3-triazol-1-yl)-3-methylbutanoyl]-4-hydroxy-N-{(1R)-2-hydroxy-1-[4-(1H-1,2,4-triazol-1-yl)phenyl]ethyl}-L-prolinamide] | 18 nM | 36 nM | – | – |
| CO[C@@H](C)COc1nc(NC2CN(C(=O)O[C@H]3C[C@@H](N(C)C)C3)C2)c2cc(C3CC3)c(-c3c(C)c(F)cc4[nH]ncc34)c(OCc3ccc(-c4cn([C@H](C(=O)N5C[C@H](O)C[C@H]5C(=O)N[C@@H](CO)c5ccc(N6CCOC6=O)cc5)C(C)C)nn4)cc3)c2n1 (atropisomer, axis not shown) [Example 4] | 48 nM | 72 nM | – | – |

Continued, in another order:

| IC50 [1, 3] | Compound | IC50 (PA-TU-8902 cells; [2]) | IC50 (PA-TU-8902 cells) | IC50 ([1]; PaTu 8902, 24 h) |
| --- | --- | --- | --- | --- |
| 31 nM | CO[C@@H](C)COc1nc(N(C)[C@H]2CCN(C(=O)NCCN(C)C)C2)c2cc(C3CC3)c(-c3c(C)c(F)cc4[nH]ncc34)c(OCc3ccc(-c4cn([C@H](C(=O)N5C[C@H](O)C[C@H]5C(=O)N[C@@H](CO)c5ccc(-c6scnc6C)cc5)C(C)C)nn4)cc3)c2n1 (atropisomer, axis not shown) [Example 19] | 58 nM | – | – |
| 9 nM | CO[C@@H](C)COc1cc(OC2CN(C(=O)O[C@H]3C[C@@H](N(C)C)C3)C2)c2cc(C3CC3)c(-c3c(C)c(F)cc4[nH]ncc34)c(OCc3ccc(-c4cn([C@H](C(=O)N5C[C@H](O)C[C@H]5C(=O)N[C@@H](CO)c5ccc(-n6cncn6)cc5)C(C)C)nn4)cc3)c2n1 (atropisomer, axis not shown; (M)) [Example 13, (1s,3R)-3-(dimethylamino)cyclobutyl 3-({(7M)-6-cyclopropyl-7-(6-fluoro-5-methyl-1H-indazol-4-yl)-8-{[4-(1-{(2S)-1-[(2S,4R)-4-hydroxy-2-({(1R)-2-hydroxy-1-[4-(1H-1,2,4-triazol-1-yl)phenyl]ethyl}carbamoyl)pyrrolidin-1-yl]-3-methyl-1-oxobutan-2-yl}-1H-1,2,3-triazol-4-yl)phenyl]methoxy}-2-[(2S)-2-methoxypropoxy]quinolin-4-yl}oxy)azetidine-1-carboxylate] | 36 nM | – | – |
| 15 nM | Cc1ncsc1-c1ccc([C@H](CO)NC(=O)[C@@H]2C[C@@H](O)CN2C(=O)[C@H](C(C)C)n2cc(-c3ccc(COc4c(-c5c(C)c(F)cc6[nH]ncc56)c(C5CC5)cc5c(NCc6cccnc6)nc(OC6CCOCC6)nc45)cc3)nn2)cc1 [Example 29] | 63 nM | – | – |
| 19 nM | CO[C@@H](C)COc1nc(N2CCOCC2)c2cc(C3CC3)c(-c3c(C)c(F)cc4[nH]ncc34)c(OCc3ccc(-c4cn([C@H](C(=O)N5C[C@H](O)C[C@H]5C(=O)N[C@@H](CO)c5ccc(-c6scnc6C)cc5)C(C)C)nn4)cc3)c2n1 (atropisomer, axis not shown) [Example 21] | 60 nM | – | – |
